Data on one compound can be found in patent publication US11000481B2, “Composite preparation of mosapride and rabeprazole” (KOREA UNITED PHARM. INC., priority 2015, dated 2021).

Series [1] is described as follows: Stability of rabeprazole sodium depending on pH. It counts as physicochemical. Particulars: condition of pH 9.0. From the text: Accordingly, it was difficult to conduct a dissolution test for the rabeprazole sodium drug in general conditions.
The conditions of series [2]: exposed to an acidic condition of pH 6.8 or below; conventionally known; cited from earlier work.

Read-outs that look alike come from different tables or passages of the source.

Regarding `COCCCOc1ccnc(C[S+]([O-])c2nc3ccccc3[nH]2)c1C` (centres unmarked) [rabeprazole sodium], the “Stability of rabeprazole sodium” value is listed as “highly stable” in series [1] and “degraded” in series [2].
